Measurements: patent publication US9505752B2, “Piperidine amide derivatives as HIV attachment inhibitors” (priority 2012, dated 2016)
Like-named read-outs stand apart in the source and are kept apart here.

Tested on: HIV-1 LAI envelope single-round infectious reporter virus
Assay: Single-round infectious luciferase reporter virus (HIV-1 LAI envelope) infection of MT2 cells
Type: cell-based
Conditions: Human immunodeficiency virus 1, MT2, 72 h
Source text: • Virus production—Human embryonic Kidney cell line, 293T (HEK 293T), was propagated in Dulbecco's Modified Eagle Medium (Invitrogen, Carlsbad, Calif.) containing 10% fetal bovine serum (FBS, Sigma, St. Louis, Mo.). The human T-cell leukemia cell MT2 (AIDS Research and Reference Reagent Program, Cat. 237) was propagated in RPMI 1640 (Invitrogen, Carlsbad, Calif.) containing 10% fetal bovine serum (FBS, Hyclone, Logan, Utah) • Virus infection—Single-round infectious reporter virus was produced by co-transfecting HEK 293T cells with plasmide expressing the HIV-1 LAI envelope along with a plasmid containing an HIV-1 LAI proviral cDNA with the envelope gene replaced by a firefly luciferase reporter gene (Chen et al., Ref 41). Transfections were performed using lipofectAMINE PLUS reagent as described by the manufacturer (Invitrogen, Carlsbad, Calif.). Experimental Procedure • 1. MT2 cells were plated in black, 384 well plates at a cell density of 5×10^3 cells per well in 25 μl RPMI 1640 containing 10% FBS. • 2. Compound (diluted in dimethylsulfoxide and growth medium) was added to cells at 12.5 μl/well, so that the final assay concentration would be ≦50 nM. • 3. 12.5 μl of single-round infectious reporter virus in Dulbecco's Modified Eagle Medium was added to the plated cells and compound at an approximate multiplicity of infection (MOI) of 0.01, resulting in a final volume of 50 μl per well. • 4. Virus-infected cells were incubated at 37 degrees Celsius in a CO2 incubator and harvested 72 h after infection. • 5. Viral infection was monitored by measuring luciferase expression in the infected cells using a luciferase reporter gene assay kit (Steady-Glo, Promega, Madison, Wis.) as described by the manufacturer. Luciferase activity was then quantified by measuring luminescence using an EnVision Multilabel Plate Readers (PerkinElmer, Waltham, Mass.). • 6. The percent inhibition for each compound was calculated by quantifying the level of luciferase expression in cells infected in the presence of each compound as a percentage of that observed for cells infected in the absence of compound and subtracting such a determined value from 100. • 7. An EC50 provides a method for comparing the antiviral potency of the compounds of this invention. The effective concentration for fifty percent inhibition (EC50) was calculated with the Microsoft Excel Xlfit curve fitting software. For each compound, curves were generated from percent inhibition calculated at 10 different concentrations by using a four parameter logistic model (model 205). Table 1 is the key for the data in Table 2.

[1] = read-out: EC50 Group from Table 1

Compound | EC50 [nM] | EC50 [1] [nM]
O=C(C(=O)N1CCC(C(=O)c2ccccc2)CC1)c1c[nH]c2ccccc12 [Compound 1001] | 3490 | > 500
CC(C)=C(c1ccccc1)C1CCN(C(=O)C(=O)c2c[nH]c3ccccc23)CC1 [Compound 1002] |  | > 500
C/C=C(\c1ccccc1)C1CCN(C(=O)C(=O)c2c[nH]c3ccccc23)CC1 [Compound 1003] |  | > 500
C=C(c1ccccc1)C1CCN(C(=O)C(=O)c2c[nH]c3ccccc23)CC1 [Compound 1004] |  | > 500
COc1cnc(-n2ccnn2)c2[nH]cc(C(=O)C(=O)N3CCC4(CC3)CC4(c3ccccc3)c3nnc(C)o3)c12 (centres unmarked) [Compound 1005] | 0.75 | < 500
O=C(C(=O)N1CCC(Cc2ccccc2)CC1)c1c[nH]c2c(-n3ccnn3)ncc(F)c12 [Compound 1006] |  | < 500
O=C(C(=O)N1CCC(C(O)(c2ccccc2)c2ccccc2)CC1)c1c[nH]c2c(-n3ccnn3)ncc(F)c12 [Compound 1007] |  | < 500
N#CC(c1ccccc1)C1CCN(C(=O)C(=O)c2c[nH]c3c(-n4ccnn4)ncc(F)c23)CC1 (centres unmarked) [Compound 1008] | 0.2 | < 500
COc1cnc(-n2cnc(C)n2)c2[nH]cc(C(=O)C(=O)N3CCC(C(C#N)c4ccccc4)CC3)c12 (centres unmarked) [Compound 1009] |  | < 500
COc1ncc(OC)c2c(C(=O)C(=O)N3CCC4(CC3)CC4(C#N)c3ccccc3)c[nH]c12 (centres unmarked) [Compound 2001, 6-(2-(4,7-dimethoxy-1H-pyrrolo[2,3-c]pyridin-3-yl)-2-oxoacetyl)-1-phenyl-6-azaspiro[2.5]octane-1-carbonitrile] |  | < 500
N#CC1(c2ccccc2)CC12CCN(C(=O)C(=O)c1c[nH]c3c(-n4ccnn4)ncc(F)c13)CC2 (centres unmarked) [Compound 2002, 6-(2-(4-fluoro-7-(1H-1,2,3-triazol-1-yl)-1H-pyrrolo[2,3-c]pyridin-3-yl)-2-oxoacetyl)-1-phenyl-6-azaspiro[2.5]octane-1-carbonitrile] |  | < 500
COc1cnc(-n2cnc(C)n2)c2[nH]cc(C(=O)C(=O)N3CCC4(CC3)CC4(C#N)c3ccccc3)c12 (centres unmarked) [Compound 2003, 6-(2-(4-methoxy-7-(3-methyl-1H-1,2,4-triazol-1-yl)-1H-pyrrolo[2,3-c]pyridin-3-yl)-2-oxoacetyl)-1-phenyl-6-azaspiro[2.5]octane-1-carbonitrile] | 2.52 | < 500
Cn1ccnc1C(O)(c1ccccc1)C1CCN(C(=O)C(=O)c2c[nH]c3c(-n4ccnn4)ncc(F)c23)CC1 (centres unmarked) [Compound 2004, 1-(4-fluoro-7-(1H-1,2,3-triazol-1-yl)-1H-pyrrolo[2,3-c]pyridin-3-yl)-2-(4-(hydroxy(1-methyl-1H-imidazol-2-yl)(phenyl)methyl)piperidin-1-yl)ethane-1,2-dione] |  | < 500
COc1cnc(-n2cnc(C)n2)c2[nH]cc(C(=O)C(=O)N3CCC(C(O)(c4ccccc4)c4nccn4C)CC3)c12 (centres unmarked) [Compound 2005, 1-(4-(hydroxy(1-methyl-1H-imidazol-2-yl)(phenyl)methyl)piperidin-1-yl)-2-(4-methoxy-7-(3-methyl-1H-1,2,4-triazol-1-yl)-1H-pyrrolo[2,3-c]pyridin-3-yl)ethane-1,2-dione] |  | < 500
Cn1ccnc1C(c1ccccc1)C1CCN(C(=O)C(=O)c2c[nH]c3c(-n4ccnn4)ncc(F)c23)CC1 (centres unmarked) [Compound 2006, 1-(4-fluoro-7-(1H-1,2,3-triazol-1-yl)-1H-pyrrolo[2,3-c]pyridin-3-yl)-2-(4-((1-methyl-1H-imidazol-2-yl)(phenyl)methyl)piperidin-1-yl)ethane-1,2-dione] |  | < 500
COc1cnc(-n2cnc(C)n2)c2[nH]cc(C(=O)C(=O)N3CCC(C(c4ccccc4)c4nccn4C)CC3)c12 (centres unmarked) [Compound 2007, 1-(4-methoxy-7-(3-methyl-1H-1,2,4-triazol-1-yl)-1H-pyrrolo[2,3-c]pyridin-3-yl)-2-(4-((1-methyl-1H-imidazol-2-yl)(phenyl)methyl)piperidin-1-yl)ethane-1,2-dione] |  | < 500
